Positions count from the first letter of the chain named.
How the values were obtained:
[1] = target: T1, human TAS2R7 E271^7.39 to leucine mutant (Homo sapiens, UniProt Q9NYW3, E271L); experiment: Calcium mobilization assay, TAS2R7 mutant E271L; type: cell-based; details: 20 mM metal ions except 0.16 mM Al2(SO4)3; cromolyn 10 mM; Figure 6C
T1 construct: signal peptide: first 45 amino acid residues of rat somatostatin receptor 3 (N); expressed in transfected cells; host or cells: HEK293 PEAKrapid (ATCC CRL-2828), transient, co-transfected with Gα16-gust44
T1 sequence (Q9NYW3 1-318 E271L): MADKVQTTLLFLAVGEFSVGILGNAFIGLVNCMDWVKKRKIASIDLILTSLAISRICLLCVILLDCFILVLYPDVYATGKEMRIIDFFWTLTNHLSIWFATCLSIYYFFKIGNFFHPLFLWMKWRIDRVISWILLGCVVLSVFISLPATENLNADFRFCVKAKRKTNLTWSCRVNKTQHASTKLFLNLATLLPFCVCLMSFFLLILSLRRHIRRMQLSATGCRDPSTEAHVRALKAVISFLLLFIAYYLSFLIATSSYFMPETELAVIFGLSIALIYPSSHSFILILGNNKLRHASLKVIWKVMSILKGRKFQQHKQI
Source text: (§1) The coding sequences of human TAS2Rs were amplified from human genomic DNA, then subcloned into pcDNA3.1(+) vector, with the herpes simplex virus glycoprotein D epitope (HSV) at the C-terminal and a signal peptide consisting of the first 45 amino acid residues of the rat somatostatin receptor 3 at the N-terminal, essentially as described previously ([Bufe et al. 2002]). Point mutations in human TAS2R7 (NCBI Reference Sequence: NP_076408.1) were constructed by site-directed mutagenesis. All the constructs were confirmed by Sanger sequencing.
(§2) Human embryonic kidney 293 (PEAKrapid, ATCC # CRL-2828) cells were cultured in Opti-MEM medium with 4% fetal bovine serum. […] After incubation, cells were washed 2 times with HBSS (including 10 mM HEPES), incubated in the dark for another 30 min, and then washed with assay solution once more before running the assay using a FlexStation III reader. Relative fluorescence units (excitation at 494 nm, emission at 516 nm, and auto cutoff at 515 nm) were read every 2 s for 2 min. Calcium mobilization traces were recorded.
(§3) Calcium mobilization traces were raw data obtained from single wells. Changes in fluorescence (ΔF) were calculated as the peak fluorescence minus baseline fluorescence ([Lei et al. 2015]). The calcium mobilization was quantified as the percentage of change (ΔF) relative to baseline (F). […]

[2] = target: T2, human TAS2R7 E271^7.39 to glutamine mutant (Homo sapiens, UniProt Q9NYW3, E271Q); experiment: Calcium mobilization assay, TAS2R7 mutant E271Q; type: cell-based; details: 20 mM metal ions except 0.16 mM Al2(SO4)3; cromolyn 10 mM; Figure 6C
T2 construct: signal peptide: first 45 amino acid residues of rat somatostatin receptor 3 (N); expressed in transfected cells; host or cells: HEK293 PEAKrapid (ATCC CRL-2828), transient, co-transfected with Gα16-gust44
T2 sequence (Q9NYW3 1-318 E271Q): T1 sequence (Q9NYW3 1-318 E271L) with L271Q
Source text: as §1, §2, §3

O=C(O)c1cc(=O)c2c(OCC(O)COc3cccc4oc(C(=O)O)cc(=O)c34)cccc2o1 [cromolyn, reference compound]
Response of E271 to leucine mutant receptor [1]: slightly reduced responses | Response of E271 to glutamine mutant receptor [2]: slightly reduced responses

Source: publication PMC6538953, “Metal Ions Activate the Human Taste Receptor TAS2R7” (Chemical Senses, 2019)
